Assay results published in patent publication US20230202981A1, “NOVEL SMALL MOLECULES FOR TARGETED DEGRADATION OF UNTARGETABLE KRAS IN CANCER THERAPY” (Pillai Universal LLC, priority 2020, published 2023).
Read-outs that look alike come from different tables or passages of the source.

Assays:
tumor xenograft = experiment: Nude mouse xenograft models (EGFR/HER2 study); format: in vivo
Source text: (§1) The activity of Compound 1 on various mutated EGFRs, HER2, and HER4 were examined. MTT assays, flow cytometry, and Western blotting were used to examine the effects of Compound 1 on with different genetic characteristics and relevant molecular mechanisms. Nude mouse xenograft models with cells were used to evaluate the in vim anti-tumor activity of Compound 1. […] Compound 1 blocked EGFR phosphorylation, thereby down regulating downstream PI3/AKT and MAPK/ERK signaling pathways and inducing G0/G1 arrest in different cells. […] Due to compromised homologous recombination (HR) repair, BRCA 1-and BRCA 2-mutated tumours accumulate DNA damage and genomic rearrangements conducive of tumour progression.

MDA-MB-453 = experiment: IC50 of Compound 1 on breast cells (MTT assay); format: cell-based; conditions: Homo sapiens; MDA-MB-453 cells
Source text: as §1

BT-474 = experiment: IC50 of Compound 1 on breast cells (MTT assay); format: cell-based; conditions: Homo sapiens; BT-474 cells
Source text: as §1

T-47D = experiment: IC50 of Compound 1 on breast cells (MTT assay); format: cell-based; conditions: Homo sapiens, T47D; T-47D cells
Source text: as §1

BT-549 = experiment: IC50 of Compound 1 on breast cells (MTT assay); format: cell-based; conditions: Homo sapiens; BT-549 cells
Source text: as §1

MCF-10A = experiment: IC50 of Compound 1 on breast cells (MTT assay); format: cell-based; conditions: Homo sapiens; MCF-10A cells
Source text: as §1

ZR-75-1 = experiment: IC50 of Compound 1 on breast cells (MTT assay); format: cell-based; conditions: Homo sapiens; ZR-75-1 cells
Source text: as §1

MDA-MB-468 = experiment: IC50 of Compound 1 on breast cells (MTT assay); format: cell-based; conditions: Homo sapiens; MDA-MB-468 cells
Source text: as §1

MDA-MB-231 = experiment: IC50 of Compound 1 on breast cells (MTT assay); format: cell-based; conditions: Homo sapiens; MDA-MB-231 cells
Source text: as §1

MCF-7 = experiment: IC50 of Compound 1 on breast cells (MTT assay); format: cell-based; conditions: Homo sapiens, MCF7; MCF-7 cells
Source text: as §1

HCC1937 = experiment: IC50 of Compound 1 on breast cells (MTT assay); format: cell-based; conditions: Homo sapiens
Source text: as §1

[1] = test system: CRAF, AKT and ERK phosphorylation in KRAS mutant cell lines; experiment: Phosphorylation of KRAS downstream signaling pathway; format: cell-based; conditions: 48 h, time-dependent
Procedure: Active KRAS stimulates downstream signaling pathways, especially for RAF/MEK/ERK and […] pathway, and then induces cell proliferation. Therefore, to investigate the effect of Compound 1, the phosphorylation levels of CRAF, AKT and ERK in cell lines was examined to monitor the impact of KRAS signaling by treatment with this compound for 48 h.

In vivo toxicity studies = experiment: In vivo toxicity studies
Source text: FIG. 20 depicts the results of in vivo toxicity studies of Compound 1. Organ weight, Body weight, liver weight, haematological parameters, serum electrolyte LFT, KFT, Lipid parameters found to be normal range compared with the controlled group.
Tests of blood cells (WBC, RBC, and PLT) for bone marrow, RFT for kidney, and ALT/AST for liver functions all provided results in the normal range.

KRAS-driven lung tumor = experiment: Tumor growth in xenograft model; format: in vivo
Procedure: The in vivo efficacy of Compound 1 in the context of mutant KRAS was next assessed. Cells were injected into nude mice, and the tumors were allowed to grow to about 60 mm^3 in size and treated daily with Compound 1 for 14-21 days. […] At the day of harvest, the net tumor mass was determined and the average tumor weight of the Compound 1 treatment group was 89% less than the average tumor weight of the control group. […] The effect of Compound 1 treatment were further examined on KRAS-mediated RAF, MEK/ERK, and PI3K/AKT cascades in protein extracts derived from vehicle- and Compound 1-treated tumors.

KRAS = KRAS (Homo sapiens, UniProt P01116); experiment: Binding to KRAS in vitro
Chain of KRAS (P01116 1-188 isoform P01116-2): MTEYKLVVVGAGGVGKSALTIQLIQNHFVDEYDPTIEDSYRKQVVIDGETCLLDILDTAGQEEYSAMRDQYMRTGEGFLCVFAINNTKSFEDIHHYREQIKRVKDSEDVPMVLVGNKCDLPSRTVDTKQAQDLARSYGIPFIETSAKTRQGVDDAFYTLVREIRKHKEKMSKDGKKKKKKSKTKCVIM
Source text: (§2) The present invention is aimed to invent powerful, therapeutic small molecules that could target mutant KRAS on its active sites. Here we identified a small molecule, compound I, that binds the GTP/GDP-binding pocket of KRAS. For this purpose we studied a strong correlation of measurement among a larger panel of tumor cell lines expressing KRAS mutation and analyses the potency to inhibit the tumor cell growth activated RAS. […] Therefore, compound I may be considered as a potential KRAS inhibitor for treatment of cancer cells carrying KRAS oncogene.
From the above biological examples it is clearly inferred that the Compound 1 as a new class of KRAS that selectively targets the GTP/GDP binding pocket. […] Compound 1 to 5-induced hyperactivation of mutant KRAS facilitates apoptotic cell death in mutant KRAS cancer cells. Combining the results with detailed structural analysis, we are able to describe key ligand-receptor interactions that correlate with activity. Thus, showing that our screening techniques were very successful at generating KRAS binders that have effects on signaling in cells. […] Therefore, compound Compound 1 is a promising hit for the development of novel non-covalent KRAS inhibitors. The development of this new class of anticancer drug offers a potentially effective strategy for the treatment of cancer with KRAS mutation and/or mutant KRAS-driven cancer. […]

Pharmacokinetics in mice = format: in vivo
[2] = test system: KRAS G12C mutant cell lines; experiment: Cytotoxic effect on NCI-Panel of 10 KRAS G12C mutant cell lines; format: cell-based
[3] = test system: GTP-KRAS in KRAS G12C, G12V, G12D, and G13D mutant cells; experiment: RAS activation assay, formation of GTP-bound KRAS in mutant cells; format: cell-based; conditions: 24 h
Source text: Actually, mutant KRAS would interfere the balance between GEFs and GAPs, resulting in locking in the active GTP-bound KRAS state and aberrant stimulation of its downstream signaling.

[4] = test system: drug-sensitive EGFR mutations, and EGFR C797S mutations; experiment: Enzyme activity of EGFR family members; format: biochemical
Source text: as §1

wild-type (WT) HER2 = wild-type (WT) HER2 (Homo sapiens, UniProt P04626); experiment: Enzyme activity of EGFR family members; format: biochemical
Chain of wild-type (WT) HER2 (P04626 23-1255): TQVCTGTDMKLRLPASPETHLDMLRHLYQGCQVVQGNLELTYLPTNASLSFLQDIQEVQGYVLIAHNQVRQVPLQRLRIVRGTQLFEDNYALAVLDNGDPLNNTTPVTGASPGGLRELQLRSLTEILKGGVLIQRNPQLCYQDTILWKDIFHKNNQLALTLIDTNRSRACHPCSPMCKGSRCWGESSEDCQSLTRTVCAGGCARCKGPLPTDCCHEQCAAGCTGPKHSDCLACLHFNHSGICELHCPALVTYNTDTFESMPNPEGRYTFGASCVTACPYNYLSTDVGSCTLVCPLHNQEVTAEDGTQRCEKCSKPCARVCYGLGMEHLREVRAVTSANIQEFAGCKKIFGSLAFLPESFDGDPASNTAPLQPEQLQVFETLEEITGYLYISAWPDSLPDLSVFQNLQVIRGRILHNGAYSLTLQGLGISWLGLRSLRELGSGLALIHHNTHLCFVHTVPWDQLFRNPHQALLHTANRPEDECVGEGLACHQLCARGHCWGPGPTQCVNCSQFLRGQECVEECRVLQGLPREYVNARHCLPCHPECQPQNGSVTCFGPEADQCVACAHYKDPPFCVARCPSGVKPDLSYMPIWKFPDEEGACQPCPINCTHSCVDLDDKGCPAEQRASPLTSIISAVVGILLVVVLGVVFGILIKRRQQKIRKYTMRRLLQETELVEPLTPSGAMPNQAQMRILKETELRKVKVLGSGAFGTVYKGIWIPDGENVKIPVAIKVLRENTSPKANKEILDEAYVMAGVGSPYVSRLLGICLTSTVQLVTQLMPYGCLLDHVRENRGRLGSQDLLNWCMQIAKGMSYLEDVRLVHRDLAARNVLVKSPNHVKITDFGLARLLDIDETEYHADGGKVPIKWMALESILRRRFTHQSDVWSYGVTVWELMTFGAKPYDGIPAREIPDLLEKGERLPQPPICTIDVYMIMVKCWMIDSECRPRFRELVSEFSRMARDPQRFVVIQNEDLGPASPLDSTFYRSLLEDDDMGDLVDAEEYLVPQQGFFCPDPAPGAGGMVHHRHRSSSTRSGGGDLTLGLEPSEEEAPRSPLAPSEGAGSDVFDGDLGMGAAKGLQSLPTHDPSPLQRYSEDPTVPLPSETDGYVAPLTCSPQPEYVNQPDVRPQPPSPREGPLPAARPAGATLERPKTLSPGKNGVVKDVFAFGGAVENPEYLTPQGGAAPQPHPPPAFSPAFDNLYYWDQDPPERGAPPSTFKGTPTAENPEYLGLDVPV
Source text: as §1

PD-L1 = PD-L1 expression; format: cell-based
Source text: as §2

Oral bioavailability = format: in vivo

SMILES: CCCCc1ncc(C(=O)C2CC=C(C(N)=O)N2)cc1C(=O)OCC (stereo not shown) [Compound 1]
- tumor growth (tumor xenograft): inhibited tumor growth
- IC50 (MDA-MB-453): 3.65 ± 0.44 µM
- IC50 (BT-474): 4.45 ± 0.1 µM
- IC50 (T-47D): 5.19 ± 0.28 µM
- IC50 (BT-549): 3.24 ± 0.08 µM
- IC50 (MCF-10A): 106 ± 3.14 µM
- IC50 (ZR-75-1): 1.69 ± 0.14 µM
- IC50 (MDA-MB-468): 4.21 ± 0.3 µM
- IC50 (MDA-MB-231): 4.89 ± 0.37 µM
- IC50 (MCF-7): 2.98 ± 0.6 µM
- IC50 (HCC1937): 7.52 ± 1.26 µM
- levels of phosphorylation of CRAF and AKT [1]: reduced the levels of phosphorylation
- histopathology of harvested normal tissues (In vivo toxicity studies; after treatment with specific doses): no evidence of normal tissue toxicities
- blood cells, kidney and liver function tests, organ and body weight (In vivo toxicity studies; compared with the controlled group): normal range
- apoptotic cells by cleaved caspase-3 staining in tumors (KRAS-driven lung tumor; immunohistochemistry): prominent increase of apoptotic cells
- cell proliferation by Ki-67 staining in tumors (KRAS-driven lung tumor; immunohistochemistry): large reduction in cell proliferation
- body weight loss or apparent toxicity (KRAS-driven lung tumor; nude mice (n=6) after treatment): no significant body weight loss or apparent toxicity
- tumor growth suppression compared to vehicle treated controls (KRAS-driven lung tumor; nude mice xenograft, suppression starting at day 9): significant suppression from day 10 to day 14
- average tumor weight less than the control group (KRAS-driven lung tumor; nude mice, treated daily for 14-21 days, day of harvest): 89%
- CRAF, ERK, and AKT phosphorylation in tumor protein extracts (KRAS-driven lung tumor; treated vs vehicle tumors): significant suppression
- binding affinity to KRAS (KRAS): nanomolar binder
- binding affinity to KRAS (KRAS; listed as Compound I): good binding affinity
- T1/2 (Pharmacokinetics in mice): T1/2 = 5.8 h (mice)
- Cmax (Pharmacokinetics in mice; 10 mg/kg b.wt.): Cmax = 2.6 μg/mL (10 mg/kg b.wt. mice)
- T max (Pharmacokinetics in mice; 10 mg/kg b.wt.): T max = 2 h (mice 10 mg/kg, b.wt;)
- number of cancer cells compared against AMG510 and MRTX849 [2]: significant reduction in the number of cancer cells
- formation of GTP-KRAS relative to the total amount of KRAS [3]: selectively inhibit the formation of GTP-KRAS
- enzyme activity of mutated EGFR [4]: effectively inhibited the enzyme activity
- enzyme activity of HER2 (wild-type (WT) HER2): effectively inhibited the enzyme activity
- PD-L1 expression (PD-L1): suppresses PD-L1 expression
- F (Bioavailability) (Oral bioavailability): F-92% (Bioavailability)
